Biological target: T1, HIV-1 integrase (Human immunodeficiency virus type 1 group M subtype B, UniProt P04585)
T1 construct: pre-incubated with 15 pmol integrase (IN) at 37 °C
Assay: HIV-1 integrase strand transfer inhibition assay (microplate, magnetic beads)
Type: biochemical, human immunodeficiency virus-1 (HIV-1)
Settings: for HIV-1 integrase inhibition activity (in words): qualitative summary of the integrase assay; for IC50: strand transfer reaction, microplate screening method, positive control baicalein, read-out: IC50, inhibition activity against HIV-1 integrase
Method: The assays were performed in a 96-well microplate (Corning, New York, NY, USA) in a final volume of 50 μL. The wells were washed once with the reaction buffer (25 mM/L PIPES, pH 7.0, 10 mM/L β-mercaptoethanol, 5% (w/v) glycerol, 0.1 g/L bovin serum albumin (BSA), and 10 mM/L MnCl2). The compounds were diluted with dimethyl sulfoxide (DMSO) to a final concentration of 10% DMSO into the reaction volume (v/v) and pre-incubated with 15 pmol integrase (IN) at 37 °C in the reaction buffer in the absence of MnCl2 (10 mM/L) for 10 min. Subsequently, 1.5 pM donor DNA and 15 pM target DNA were added and the reaction was initiated. After incubation for 1 h at 37 °C, […] magnetic particles (6.7 × 10^8 beads/mL) and 51.5 μL binding buffer (10 mM/L Tris–HCl, pH 7.6, 2 M/LNaCl, 20 mM/L ethylene diamine tetraacetic acid (EDTA), and 0.1% [w/v] Tween 20) were added and incubated at 20 °C for 15 min. Then the wells holding the mixture were placed in a magnetic concentrator, the supernatant was discarded, and the wells were washed 3 times with phosphate buffered saline (PBS) containing 0.1% Tween20(PBST). Subsequently, 100 μL of 1:5000 diluted alkaline phosphatase (AP) conjugate anti-DIG antibody was added and incubated for 30 min at 37 °C. Finally, the wells were washed 3 times with PBST and the magnetic beads were transferred into fresh wells; 100 μL P-nitrophenyl phosphate (P-NPP) substrate (0.1 M/L Na2CO3, pH 9.5, 6.7 mM/L P-NPP, and 2 mM/L MgCl2) was added. The plates were read at 405 nm with a Model 680 microplate reader (Bio-Rad, Hercules, CA, USA). In the assay, baicalein was used as the positive control.
The IC50 values of the samples were calculated based on the assay results after curve fitting according to a non-linear regression.

SMILES	HIV-1 integrase inhibition activity (in words)	IC50 [µM]
COc1cc([C@@H]2OC[C@@]3(O)[C@@H]2CO[C@H]3c2ccc(O)c(OC)c2)ccc1O [Compound 2, (+)-8-hydroxy-7,7'-bis-epi-pinoresinol]	weak HIV-1 integrase inhibitory activities	61.7
O=c1cc(-c2ccccc2)oc2cc(O)c(O)c(O)c12 [baicalein, reference compound]	–	1.37
C=CC1C(OC2OC(CO)C(O)C(O)C2O)OC=C(C(=O)OC2CC3C(C(=O)OC)=COC(OC4OC(CO)C(O)C(O)C4O)C3C2C)C1CC1OC(C)C(C)O1 (stereo not drawn) [Compound 8, dipsanosides N]	weak HIV-1 integrase inhibitory activities	92.7
COc1cc([C@@H]2OC[C@@]3(O)[C@@H]2CO[C@H]3c2cc(OC)c(O)c(OC)c2)ccc1O [Compound 1, (+)-8-hydroxy-7,7'-bis-epi-fraxiresinol]	weak HIV-1 integrase inhibitory activities	53.3
C=CC1C(OC2OC(CO)C(O)C(O)C2O)OC=C(C(=O)OC2CC3C(C(=O)OC)=COC(OC4OC(CO)C(O)C(O)C4O)C3C2C)C1CC1OC(C)C(C)O1 (stereo not drawn) [Compound 7, dipsanoside M]	weak HIV-1 integrase inhibitory activities	84
